Source: paper PMC4537050, “A long pentraxin-3-derived pentapeptide for the therapy of FGF8b-driven steroid hormone-regulated cancers” (Oncotarget, 2015)

Experiments:
[1] = mouse, in vivo, ip, 100 mg/kg
Experimental: Eight week-old C57BL/6 mice were treated i.p. with 100 mg/kg of ARPCA every other day for two weeks. During this period, animals were weighted for body weight variation analysis. At the end of treatment, whole blood and serum were harvested and analysed for blood components, biochemical serum parameters and circulating levels of FGF23. The serum levels of FGF23 were assessed by ELISA (Uscn Life Science Inc., Wuhan, PRC, Asia) according to manufacturer's instructions. Untreated mice were used as reference/control.

[2] = molecular target: T1, FGF8b (Homo sapiens, UniProt P55075); assay: ARPCA-FGF8 interaction by 2D 1H-13C HSQC NMR titration; assay type: binding; parameters: purchased ASLA (Riga, Latvia); details: 190 μM ARPCA, FGF8b:ARPCA 0.5:1 and 1:1, intermediate to fast exchange
T1 sequence (P55075 23-215 isoform P55075-3 limits assumed): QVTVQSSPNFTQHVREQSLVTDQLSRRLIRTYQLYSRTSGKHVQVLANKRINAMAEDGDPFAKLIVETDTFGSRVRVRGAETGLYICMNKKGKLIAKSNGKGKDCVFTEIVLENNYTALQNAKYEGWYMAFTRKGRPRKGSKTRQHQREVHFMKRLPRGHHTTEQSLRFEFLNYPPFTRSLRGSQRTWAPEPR
Experimental: NMR experiments were collected on samples containing 190 μM of ARPCA, dissolved in 50 mM potassium phosphate buffer pH 6.7 (90% H2O/10% D2O), 2.5 mM arginine, 10mM NaCl in the presence of variable concentrations of FGF8 corresponding to 1:0, 1:0.5, and 1:1 ARPCA:FGF8 ratios.
2D 1H-13C HSQC spectra were recorded with a sweep width of 10 ppm and 100 ppm.2k × 128 data points were used in proton and carbon dimensions, respectively. Data, acquired and processed using Topspin (Bruker Biospin), were apodized with a squared sinebell shifted by 90° and polynomial baseline correction. All NMR spectra were recorded at 298 K with a Bruker DMX spectrometer operating at 600 MHz.

[3] = tested on: S115 cells grafted onto the chick embryo CAM; assay: CAM assay with DHT-treated S115 cell grafts; assay type: in vivo; details: 2.5 × 10^4 cells/embryo; ARPCA 80 or 140 pmoles/embryo, ARPVA 140 pmoles/embryo; day 14
Experimental: Alginate plugs containing vehicle, FGF8b (4.5 pmoles/embryo), VEGF-A (4.5 pmoles/embryo) or S115 cells (2.5×10^4/embryo) in the absence or presence of ARPCA (80 or 140 pmoles/embryo) or ARPVA (140 pmoles/embryo) were placed on the CAM of fertilized white leghorn chicken eggs at day 11 of incubation. At day 14, newly formed blood microvessels converging toward the implant were counted by two observers in a double-blind fashion at 5x magnification under a stereomicroscope (STEMI-SR, x2/0.12; Zeiss) as described.

[4] = tested on: HUVEC spheroids; assay: Endothelial cell sprouting assay (HUVEC spheroids in fibrin gel); assay type: cell-based, human; details: 60 μM peptide, 24 h
Experimental: HUVEC spheroid aggregates were prepared in 20% methylcellulose medium, embedded in fibrin gel, and stimulated with FGF8b or VEGF-A (both at 30 ng/ml) plus 5% FBS in the absence or presence of 60 μM ARPCA or ARPVA. Formation of radially growing cell sprouts was observed during the next 24 h, photographed at 200x magnification using an Axiovert 200M microscope (Carl Zeiss, Milan, Italy, EU) and counted.

[5] = tested on: TRAMP-C2 alginate plugs; assay: Murine s.c. alginate implant assay, TRAMP-C2 cells; assay type: in vivo, C57BL/6 male mice; details: i.p. at 100 mg/kg every other day
Experimental: Eightweek-old athymic Nu/Nu or C57BL/6 male mice were injected s.c. with 450 μl of 3% (w/v) sodium alginate solution (alginic acid dissolved in LPS-free PBS) containing 5×10^6 S115 or 8×10^6 TRAMP-C2 cells, respectively. Mice were treated i.p. with ARPCA or ARPVA (100 mg/kg) on day 7, 9, 11 and 13 after implant. On day 14, alginate gels were harvested, weighted, embedded in OCT-compound and immediately frozen to be processed for histological analysis. For immunofluorescence stainings, sections (5 μm thick) were obtained with a cryostat microtome, air dried and fixed with acetone (for 5 min at 4°C). After blocking with 1% BSA (Bovine Serum Albumin) in PBS for 10 minutes, sections were incubated with primary antibodies, rabbit anti-FGFR1 (Santa Cruz Biotechnology), rabbit anti-phospho FGFR1 (Santa Cruz Biotechnology), Ki67 (Dako, Milano, Italy, EU) or CD31 (BD Biosciences Pharmingen, San Diego, CA, USA). After washing with PBS containing 0.05% Tween 20, sections were incubated with the appropriate Alexa Fluor 488 or Alexa Fluor 594-conjugated secondary antibody (Invitrogen). After mounting in a drop of anti-bleaching mounting medium containing DAPI (Vectashield, Vector Laboratories, Burlingame, CA, USA), sections were examined under a Zeiss Fluorescence Axiovert 200M microscope (Carl Zeiss).

[6] = molecular target: T2, FGF3 (Homo sapiens, UniProt P11487); assay: SPR analysis of FGF/ARPCA interaction, FGF3; assay type: binding; details: immobilized FGF3
T2 sequence (P11487 18-239): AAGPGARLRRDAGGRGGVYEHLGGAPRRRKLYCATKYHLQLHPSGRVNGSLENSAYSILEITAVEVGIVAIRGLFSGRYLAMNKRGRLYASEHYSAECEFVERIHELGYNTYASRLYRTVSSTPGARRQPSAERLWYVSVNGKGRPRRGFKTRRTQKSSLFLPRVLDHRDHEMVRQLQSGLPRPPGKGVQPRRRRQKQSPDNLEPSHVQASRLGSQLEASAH

[7] = molecular target: T3, FGF6 (Homo sapiens, UniProt P10767); assay: SPR analysis of FGF/ARPCA interaction, FGF6; assay type: binding; details: immobilized FGF6
T3 sequence (P10767 38-208): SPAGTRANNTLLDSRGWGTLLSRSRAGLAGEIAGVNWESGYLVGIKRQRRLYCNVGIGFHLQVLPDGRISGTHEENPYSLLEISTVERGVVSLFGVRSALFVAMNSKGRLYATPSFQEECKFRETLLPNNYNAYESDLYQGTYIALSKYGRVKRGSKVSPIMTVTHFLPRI

[8] = tested on: TRAMP-C2 tumor grafts; assay: In vivo tumor therapy study, TRAMP-C2 tumors; parameters: species or system C57BL/6 male mice; details: s.c. TRAMP-C2 cells, i.p. 100 mg/kg every other day
Experimental: Eight week old C57BL/6 male mice were injected s.c. with 8×10^6 TRAMP-C2 cells, and eight week old athymic Nu/Nu male mice were injected s.c. with 5×10^6 S115 cells. All injections were performed in 200 μl total volume of PBS into the dorsolateral flank. When tumors were palpable treatment was performed every other day by i.p. injection of ARPCA, ARPVA (both at 100 mg/kg) or vehicle (PBS) in 100 μl final volume. Tumors were measured in two dimensions and tumor volume was calculated according to the formula V=(D × d^2)/2, where D and d are the major and minor perpendicular tumor diameters, respectively. At the end of the experimental procedure tumors were harvested, weighted and photographed.

[9] = molecular target: FGF9 (Homo sapiens, UniProt P31371); assay: SPR analysis of FGF/ARPCA interaction, FGF9; assay type: binding; details: immobilized FGF9

## Ac-ARPCA-NH2 [ARPCA, Ac-ARPCA-NH2]
[1]
  systemic toxic effect in treated animals: absence of any systemic toxic effect
[2]
  binding to FGF8b indicated by NMR titration: micromolar range
[3]
  neovascular response elicited by DHT-pretreated S115 cells on the CAM: abolished
[4]; 30 ng/ml FGF8b
  sprouting activity exerted by FGF8b on HUVEC spheroids: specifically prevents the pro-angiogenic/sprouting activity
[4]; 30 ng/ml VEGF-A
  effect on the angiogenic potential of VEGF-A on HUVEC spheroids: no effect
[5]
  CD31-positive tumor vascularization in TRAMP-C2 alginate plugs: decrease
  FGFR1 activation in TRAMP-C2 alginate plugs: impaired FGFR1 activation
  tumor cell proliferation rate (Ki67 immunostaining) in TRAMP-C2 alginate plugs: decrease
[6]
  Kd, FGF3: n.b.
[7]
  Kd, FGF6: n.b.
[8]
  growth of TRAMP-C2 tumor grafts, long-term assay: inhibited the growth of TRAMP-C2 tumor grafts
[9]
  Kd, FGF9: n.b.
